Laboratory results taken from article PMC9405847, “Design, Synthesis and Pharmacological Evaluation of Novel Conformationally Restricted N-arylpiperazine Derivatives Characterized as D2/D3 Receptor Ligands, Candidates for the Treatment of Neurodegenerative Diseases” (Biomolecules, 2022).

What was measured:
[1] = target: human D3 dopaminergic receptor (D3R) (Homo sapiens, UniProt P35462); assay: Competition binding of [3H]-spiperone and GTP-shift (functional binding) in membranes of recombinant Chem-1 cells; conditions: for IC50: D3R, [3H]-spiperone 0.5 nM, 95% confidence interval in parentheses; for Na+-Shift (II/I) D3R: IC50 in NaCl + GTP (II) divided by IC50 in MgCl2 + CaCl2 (I); for Intrinsic Efficacy at D3R: classified from the Na+-shift (GTP-shift assay)
Sequence of human D3 dopaminergic receptor (D3R) (P35462 whole entry): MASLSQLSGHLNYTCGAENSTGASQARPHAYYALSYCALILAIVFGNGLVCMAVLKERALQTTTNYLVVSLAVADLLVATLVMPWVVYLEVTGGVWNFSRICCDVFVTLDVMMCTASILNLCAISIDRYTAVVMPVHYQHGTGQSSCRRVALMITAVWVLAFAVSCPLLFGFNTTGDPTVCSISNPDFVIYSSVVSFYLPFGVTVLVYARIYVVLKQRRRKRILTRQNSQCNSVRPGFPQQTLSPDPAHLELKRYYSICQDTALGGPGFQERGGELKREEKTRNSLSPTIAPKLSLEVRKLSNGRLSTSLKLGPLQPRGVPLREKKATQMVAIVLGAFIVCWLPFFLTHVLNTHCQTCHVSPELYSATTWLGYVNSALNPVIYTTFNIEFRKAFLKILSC

D2R = target: T1, D2R (Rattus norvegicus, UniProt P61169); assay: Competition binding of [3H]-YM-09151-2 to D2-like receptors in rat striatal membranes
T1 construct: from tissue; host or cells: striatum of adult male Wistar rats
T1 sequence (P61169 whole entry): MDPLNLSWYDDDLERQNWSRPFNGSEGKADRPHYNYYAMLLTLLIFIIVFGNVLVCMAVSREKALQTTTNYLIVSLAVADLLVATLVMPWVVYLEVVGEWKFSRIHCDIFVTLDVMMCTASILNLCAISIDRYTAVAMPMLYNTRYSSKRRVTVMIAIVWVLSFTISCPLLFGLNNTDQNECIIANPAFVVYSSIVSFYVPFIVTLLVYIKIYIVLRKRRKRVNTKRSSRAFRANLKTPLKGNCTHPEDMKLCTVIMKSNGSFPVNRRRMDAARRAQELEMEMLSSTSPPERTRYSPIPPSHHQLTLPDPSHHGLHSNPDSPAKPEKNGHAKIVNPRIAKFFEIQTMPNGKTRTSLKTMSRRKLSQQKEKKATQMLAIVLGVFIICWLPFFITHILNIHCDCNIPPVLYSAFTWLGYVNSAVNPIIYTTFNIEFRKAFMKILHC
Protocol: Finally, to evaluate the selectivity of the substances, classic binding to D2-like receptors was performed using rat striatal membranes. Adult male Wistar rats (2.5–3 months) were killed by decapitation, their brains were immediately removed on ice and the striatum was dissected and stored in liquid nitrogen until use. This procedure was approved by the Institutional Ethical Committee for Animal Care from the Federal University of Rio de Janeiro (CEUA no. 052/19; 30 April 2019). The striatum was homogenized in a motorized Potter-type apparatus with a Teflon piston at 4 °C at 20 volumes per gram of tissue in ice-cold 50 mM Tris-HCl buffer (pH 7.4) containing 8 mM MgCl2 and 5 mM ethylenediaminetetraacetic acid (EDTA). The resulting suspension was ultracentrifuged at 48,000× g at 4 °C for 20 min. The pellet was resuspended in 20 volumes of the same buffer and incubated at 37 °C for 10 min to remove endogenous neurotransmitters. This suspension was cooled and ultracentrifuged at 48,000× g for 20 min at 4 °C [46]. The final pellet was resuspended and stored in liquid nitrogen until use.
In a medium containing the antagonist radioligand [^3H]-YM-09151-2 0.1 nM, 120 mM NaCl, 5 mM KCl, 5 mM MgCl2, 1.5 mM CaCl2, 1 mM EDTA and 50 mM Tris-HCl (pH 7.2 a 25 °C), 50 µg of […] striatum membrane was incubated in the dark (sodium light) for 60 min at 37 °C. Nonspecific binding was estimated using sulpiride (30 µM).

[2] = IC50 (MgCl2 + CaCl2), medium I: 5 mM MgCl2 and 1.5 mM CaCl2
[3] = IC50 (NaCl + GTP), medium II: 154 mM NaCl and 1 mM GTP

Row | IC50 [1, 2] | IC50 [1, 3] | Na+-Shift (II/I) D3R [1] | Intrinsic Efficacy at D3R [1] | Ki (D2R) | melting point | SMILES
1 | 1100 nM | 1200 nM | 1.1 | antagonist | 440 nM | 154 to 156 °C | Cc1cc2c(cc1S(=O)(=O)Nc1ccc(CN3CCN(c4ccccc4)CC3)cc1)OCO2 [Compound 5a, 6-Methyl-N-(4-((4-phenylpiperazin-1-yl)methyl)phenyl) Benzo [d] [1,3] Dioxole-5-sulfonamide]
2 | 420 nM | 990 nM | 2.4 | partial agonist | 820 nM | 178 to 180 °C | O=S(=O)(Nc1ccc(CN2CCN(c3ccccc3)CC2)cc1)c1ccc2c(c1)OCO2 [Compound 5d, N-(4-((4-Phenylpiperazin-1-yl) Methyl) Phenyl) Benzo [d] [1,3] Dioxole-5-Sulfonamide]

Second part, the compound before the results:

Row | SMILES | IC50 [1, 2] | IC50 [1, 3] | Na+-Shift (II/I) D3R [1] | Intrinsic Efficacy at D3R [1] | Ki (D2R) | melting point
3 | O=S(=O)(Nc1ccc(CN2CCN(c3cccc(Cl)c3Cl)CC2)cc1)c1ccc2c(c1)OCO2 [Compound 5f, N-(4-((4-(2,3-Dichlorophenyl)piperazin-1-yl)methyl)phenyl) Benzo [d] [1,3] Dioxole-5-sulfonamide] | 110 nM | 200 nM | 1.8 | partial agonist | 200 nM | 163 to 166 °C
4 | COc1ccccc1N1CCN(Cc2ccc(NS(=O)(=O)c3ccc4c(c3)OCO4)cc2)CC1 [Compound 5e, N-(4-((4-(2-Methoxyphenyl)piperazin-1-yl)methyl)phenyl) Benzo [d] [1,3] Dioxole-5-sulfonamide] | 230 nM | 200 nM | 0.9 | antagonist | 100 nM | 149 to 151 °C
5 | Cc1cc2c(cc1S(=O)(=O)Nc1ccc(CN3CCN(c4cccc(Cl)c4Cl)CC3)cc1)OCO2 [Compound 5c, N-(4-((4-(2,3-Dichlorophenyl)piperazin-1-yl)methyl)phenyl)-6-methylbenzo [d] [1,3] Dioxole-5-sulfonamide] | 750 nM | 780 nM | 1 | antagonist | 400 nM | 192 to 194 °C
6 | COc1ccccc1N1CCN(Cc2ccc(NS(=O)(=O)c3cc4c(cc3C)OCO4)cc2)CC1 [Compound 5b, N-(4-((4-(2-Methoxyphenyl)piperazin-1-yl)methyl)phenyl)-6-methylbenzo [d] [1,3] Dioxole-5-sulfonamide] | 760 nM | 290 nM | 0.4 | weak inverse agonist | 80 nM | 183 to 185 °C
